Assays:
ACE [1] = target: ACE (Homo sapiens, UniProt P12821); conditions: literature (Nakamura 1995; Aryoshi 1993); read-out: IC50 values reported earlier; cited from earlier work
ACE [2] = assay: modified Matsui ACE inhibition assay; type: biochemical
Protocol: Quantification of MAP and ITP in the various samples was performed on a Micromass Quattro II MS instrument operated in the positive electrospray, multiple reaction monitoring mode. The HPLC method used was similar to the one described above. The MS settings (ESI+) were as follows: cone voltage 37 V, capillary voltage 4 kV, drying gas nitrogen at 300 l/h. Source and nebulizer temperature: 100° C. and 250° C., respectively. The synthesized peptides were used to prepare a calibration line using the precursor ion 318.1 and the summed product ions […] for MAP and using the precursor ion 320.2 and the summed product ions […] for ITP. According to these analyses the novel ACE inhibiting tripeptides MAP and ITP are present in the CDBAP product in quantities corresponding with 2.9 mg MAP/gram CDBAP or 4.8 mg MAP/gram protein in CDBAP and 0.9 mg ITP/gram CDBAP en 1.4 mg ITP/gram protein in CDBAP. […]
Each one of the four samples contained 75 μl 3 mM hippuryl histidine leucine (Hip-His-Leu, Sigma) dissolved in a 250 mM borate solution containing 200 mM NaCl, pH 8.3. […] After incubation for 20 min. at 37° C., 4 ml 4 mM Na2SO3 in 0.2 M NaH2PO4 was added and the light absorbance at 416 nm was measured with UV/Vis spectrophotometer (Shimadzu UV-1601 with a CPS controller, Netherlands). […]

ACE [3] = assay: at-line ACE inhibition assay; type: biochemical; conditions: HHL substrate, PBS pH 7.4, 60 minutes at 50° C.
Text: The presence of novel ACE inhibiting peptides in CDBAP was investigated by using 2-dimensional-chromatographic-separation combined with an at-line ACE inhibition assay and mass spectrometry for identification. In the first analysis the peptide mixture was separated on an ODS3 liquid chromatography (LC) column and ACE inhibition profiles were generated from the various fractions obtained. In a second analysis the fractions from the first column showing a high ACE inhibition were further separated on a Biosuite LC column using a different gradient profile. The fractions collected from this second column were split into two parts: one part was used for the at-line ACE inhibition measurement while the other part was subjected to MS and MS-MS analysis to identify the peptides present. […]
The 96 well plate was then analysed on a flash-HPLC-column. […] Hippuric acid (H) and HHL were monitored at 280 nm. The peak heights of H and HHL were measured and the ACE inhibition (ACEI) of each fraction was calculated according to the equation: […]
The Degree of Cleavage was calculated by expressing the peak height of H as a fraction of the sum of the peak heights of H and HHL.

ACE (Homo sapiens, UniProt P12821), sequence (P12821 30-1306, species assumed): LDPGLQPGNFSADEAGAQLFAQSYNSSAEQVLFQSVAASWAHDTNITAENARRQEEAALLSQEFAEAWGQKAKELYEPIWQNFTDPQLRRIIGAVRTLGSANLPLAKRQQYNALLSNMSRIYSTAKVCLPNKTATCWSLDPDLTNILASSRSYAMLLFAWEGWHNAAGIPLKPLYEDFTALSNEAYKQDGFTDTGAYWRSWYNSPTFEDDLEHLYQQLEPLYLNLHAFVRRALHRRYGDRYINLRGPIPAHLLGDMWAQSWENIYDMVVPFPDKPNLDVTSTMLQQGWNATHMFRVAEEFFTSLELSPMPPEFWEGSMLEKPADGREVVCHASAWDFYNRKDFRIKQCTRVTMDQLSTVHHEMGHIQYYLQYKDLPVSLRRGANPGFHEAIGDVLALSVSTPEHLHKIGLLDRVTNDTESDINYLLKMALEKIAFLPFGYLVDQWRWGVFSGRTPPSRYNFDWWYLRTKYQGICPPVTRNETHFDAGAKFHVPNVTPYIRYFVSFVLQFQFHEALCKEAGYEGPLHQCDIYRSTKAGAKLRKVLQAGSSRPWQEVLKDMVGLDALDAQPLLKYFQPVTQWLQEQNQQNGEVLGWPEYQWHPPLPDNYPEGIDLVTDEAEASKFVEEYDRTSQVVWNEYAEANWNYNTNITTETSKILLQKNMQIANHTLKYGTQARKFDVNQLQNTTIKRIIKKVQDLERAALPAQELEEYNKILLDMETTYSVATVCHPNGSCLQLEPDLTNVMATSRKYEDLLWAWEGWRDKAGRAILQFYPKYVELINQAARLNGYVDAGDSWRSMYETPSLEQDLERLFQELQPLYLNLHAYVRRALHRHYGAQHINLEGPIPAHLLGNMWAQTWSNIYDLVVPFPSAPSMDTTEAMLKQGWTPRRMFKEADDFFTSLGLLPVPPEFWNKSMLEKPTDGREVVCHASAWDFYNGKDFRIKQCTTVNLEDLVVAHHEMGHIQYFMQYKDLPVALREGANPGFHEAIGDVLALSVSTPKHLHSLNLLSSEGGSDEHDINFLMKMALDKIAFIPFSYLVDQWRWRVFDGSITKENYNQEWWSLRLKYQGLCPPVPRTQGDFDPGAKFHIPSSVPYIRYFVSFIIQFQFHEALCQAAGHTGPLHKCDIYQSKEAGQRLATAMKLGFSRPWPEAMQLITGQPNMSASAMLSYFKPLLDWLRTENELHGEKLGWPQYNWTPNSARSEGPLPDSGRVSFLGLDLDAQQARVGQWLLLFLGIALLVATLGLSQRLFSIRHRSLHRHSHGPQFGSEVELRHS

Row | Substance | IC50 (ACE [1]) [µM] | IC50 (ACE [2]; chemically synthesized peptides, Hip-His-Leu, pH 8.3, 37° C., 30 min, read-out: IC50 value Modified Matsui assay) [µM] | IC50 (ACE [2]; read-out: IC50 value in Modified Matsui test) [µM] | IC50 (ACE [3]) [µM]
1 | IPP: known ACE inhibiting tripeptide, kappa-casein f108-110; chemically synthesized IPP used as internal reference | 5 | 2 | 2 | 7.1
2 | LPP: known ACE inhibiting tripeptide, β-casein f151-153 (UniProt P02666 166-168, looked up, fragment) | 9.6 | – | – | –

From patent US20090143311A1, “Compositions comprising tripeptides inhibiting ace” (priority 2005, published 2009)
